# Data as given in US7115629B2, “Carbamates derived from arylalkylamines” (Laboratorios S.A.L.V.A.T., S.A., priority 2000, dated 2006).
# Structures can show the parent of a compound that is named as a salt. Where two headings read alike, the source gives them in different places.
# How the values were obtained:
# human M3 receptors = target: T1, human M3 receptors (Homo sapiens, UniProt P20309); assay: Binding test to cloned human M3 muscarinic receptor ([3H]-NMS displacement, CHO-K1 membranes)
# T1 construct: purchased Receptor Biology; host or cells: CHO-K1 cells transfected with the human receptor (membranes)
# Method: (§1) Membranes from CHO—K1 cells transfected with human M2 or M3 receptors (Receptor Biology) were used. The summarised experimental procedure for both receptors was the following: membranes (15–20 μg) were incubated with [^3H]-NMS (0.3–0.5 nM) for 60 min at 25° C., in presence or absence of the antagonists. Incubation was carried out in 96 wells polystyrene microplates in a total incubation volume of 0.2 mL of PBS pH 7.4. Non specific binding was determined in parallel assays in presence of atropine (5 μM). Samples were filtered through type GF/C glass fibre, preincubated with PEI 0.3%. Filters were washed 3–4 times with 50 mM Tris-HCl, 0.9% NaCl, pH 7.4 at 4° C., and dried at 50° C. for 45 min. Filter bound radioactivity was quantified by liquid scintillation counting.
# (§2) For the calculation of the inhibition constant (Ki), displacement curves were analysed by non-linear regression (GraphPad Prism). Dissociation constant (KD) of [^3H]-NMS for each receptor was obtained through the saturation curves obtained in the same conditions as the experiments carried out with the antagonists.
# human M2 receptors = target: T2, human M2 receptors (Homo sapiens, UniProt P08172); assay: Binding test to cloned human M2 muscarinic receptor ([3H]-NMS displacement, CHO-K1 membranes), reported as M2/M3 ratio; conditions: value greater than 1 indicates selectivity for the M3 receptor
# T2 construct: purchased Receptor Biology; host or cells: CHO-K1 cells transfected with the human receptor (membranes)
# T2 sequence (P08172 1-466): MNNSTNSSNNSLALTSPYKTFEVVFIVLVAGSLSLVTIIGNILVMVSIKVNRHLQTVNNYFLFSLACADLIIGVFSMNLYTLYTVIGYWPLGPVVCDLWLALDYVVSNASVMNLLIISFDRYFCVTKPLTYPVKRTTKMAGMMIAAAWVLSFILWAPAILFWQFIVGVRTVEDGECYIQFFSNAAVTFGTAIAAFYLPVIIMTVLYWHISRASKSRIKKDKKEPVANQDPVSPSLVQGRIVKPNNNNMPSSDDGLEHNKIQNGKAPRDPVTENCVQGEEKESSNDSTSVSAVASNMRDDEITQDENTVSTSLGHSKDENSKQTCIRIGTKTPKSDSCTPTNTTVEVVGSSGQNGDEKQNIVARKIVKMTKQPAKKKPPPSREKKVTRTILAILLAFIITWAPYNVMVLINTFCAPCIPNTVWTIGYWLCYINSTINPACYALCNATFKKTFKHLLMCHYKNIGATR
# Method: as §1, §2
# [1] = membranes of CHO-K1 cells transfected with human M3, [3H]-NMS, mean of two independent experiments in duplicate, read-out: M3 (human M3 antagonist activity, binding affinity constant Ki)
# T1 sequence (P20309 whole entry): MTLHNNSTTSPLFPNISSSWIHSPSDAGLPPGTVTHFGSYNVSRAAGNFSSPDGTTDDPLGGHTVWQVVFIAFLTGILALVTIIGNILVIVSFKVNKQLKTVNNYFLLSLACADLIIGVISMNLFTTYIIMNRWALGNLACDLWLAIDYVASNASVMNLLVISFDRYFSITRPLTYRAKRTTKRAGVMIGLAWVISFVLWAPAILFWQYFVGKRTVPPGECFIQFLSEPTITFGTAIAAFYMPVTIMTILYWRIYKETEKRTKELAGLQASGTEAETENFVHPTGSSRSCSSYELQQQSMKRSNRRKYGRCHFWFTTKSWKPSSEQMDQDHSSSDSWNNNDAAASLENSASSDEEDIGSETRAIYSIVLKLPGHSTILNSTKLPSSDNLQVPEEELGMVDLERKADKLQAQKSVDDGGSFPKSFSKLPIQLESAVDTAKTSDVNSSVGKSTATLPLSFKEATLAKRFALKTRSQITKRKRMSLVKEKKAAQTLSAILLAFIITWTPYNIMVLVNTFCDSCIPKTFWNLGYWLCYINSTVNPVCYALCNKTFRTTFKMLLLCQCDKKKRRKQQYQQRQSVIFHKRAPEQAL
SMILES,Ki (human M3 receptors),M2/M3 (ratio between M2 and M3 receptor affinities) (human M2 receptors),Ki (human M3 receptors; [1])
"O=C(OC1CN2CCC1CC2)N(Cc1ccccc1)c1ccccc1 (stereo not drawn) [Example 1, 3-quinuclidyl N-benzyl-N-phenylcarbamate, hydrochloride]",450 pM,10,
"O=C(O[C@H]1CN2CCC1CC2)N(Cc1ccccc1)c1ccccc1 [Example 2, (R)-3-quinuclidyl N-benzyl-N-phenylcarbamate, hydrochloride]",310 pM,5,
"C[N+]12CCC(CC1)C(OC(=O)N(Cc1ccccc1)c1ccccc1)C2.[I-] [Example 3, (R)-3-N-benzyl-N-phenylcarbamoyloxy)-1-methylquinuclidinium iodide]",,7,2600 pM
O=C(OC1CN2CCC1CC2)N(Cc1ccccc1)c1ccccc1F (stereo not drawn) [Example 5],,47,47 pM
O=C(OC1CN2CCC1CC2)N(Cc1ccccc1)c1cccc(Cl)c1 (stereo not drawn) [Example 6],,87,210 pM
O=C(OC1CN2CCC1CC2)N(Cc1ccccc1)c1cccc(Br)c1 (stereo not drawn) [Example 7],,19,2050 pM
O=C(O[C@H]1CN2CCC1CC2)N(Cc1ccccc1)c1c(F)cccc1F [Example 8],,11,200 pM
O=C(OC1CN2CCC1CC2)N(Cc1ccccc1)c1ccc(F)c(F)c1 (stereo not drawn) [Example 9],,9,19600 pM
Cc1cccc(N(Cc2ccccc2)C(=O)OC2CN3CCC2CC3)c1 (stereo not drawn) [Example 10],,44,140 pM
Cc1cccc(C)c1N(Cc1ccccc1)C(=O)OC1CN2CCC1CC2 (stereo not drawn) [Example 11],,11,6120 pM
O=C(OC1CN2CCC1CC2)N(Cc1ccccc1)c1ccc2c(c1)CCC2 (stereo not drawn) [Example 12],,6,30700 pM
N#Cc1ccc(N(Cc2ccccc2)C(=O)OC2CN3CCC2CC3)cc1 (stereo not drawn) [Example 13],,17,4310 pM
O=C(OC1CN2CCC1CC2)N(Cc1ccccc1)c1ccccc1O (stereo not drawn) [Example 14],,21,310 pM
Cc1ccc(F)c(N(Cc2ccccc2F)C(=O)OC2CN3CCC2CC3)c1 (stereo not drawn) [Example 15],,21,530 pM
O=C(OC1CN2CCC1CC2)N(Cc1ccccc1Br)c1ccccc1 (stereo not drawn) [Example 16],,13,4230 pM
O=C(OC1CN2CCC1CC2)N(Cc1cccc(F)c1)c1cccc(F)c1 (stereo not drawn) [Example 17],,196,54 pM
O=C(OC1CN2CCC1CC2)N(Cc1ccc(F)cc1)c1cccc(F)c1F (stereo not drawn) [Example 18],,154,920 pM
Cc1ccc(F)c(N(Cc2ccc(Cl)cc2)C(=O)OC2CN3CCC2CC3)c1 (stereo not drawn) [Example 19],,23,1200 pM
O=C(OC1CN2CCC1CC2)N(Cc1cccc(F)c1F)c1cccc(Cl)c1 (stereo not drawn) [Example 20],,149,330 pM
O=C(OC1CN2CCC1CC2)N(Cc1ccc(Cl)cc1Cl)c1ccc(F)cc1F (stereo not drawn) [Example 21],,5,105000 pM
Cc1cccc(N(Cc2ccc(F)cc2F)C(=O)OC2CN3CCC2CC3)c1 (stereo not drawn) [Example 22],,21,510 pM
COc1ccc(CN(C(=O)OC2CN3CCC2CC3)c2cccc(Cl)c2)c(F)c1 (stereo not drawn) [Example 23],,118,730 pM
O=C(OC1CN2CCC1CC2)N(Cc1cc(F)ccc1F)c1ccccc1Cl (stereo not drawn) [Example 24],,33,480 pM

SMILES,Ki (human M3 receptors),M2/M3 (ratio between M2 and M3 receptor affinities) (human M2 receptors),Ki (human M3 receptors; [1])
COc1ccc(F)c(CN(C(=O)OC2CN3CCC2CC3)c2ccccc2)c1 (stereo not drawn) [Example 25],,19,1700 pM
O=C(OC1CN2CCC1CC2)N(Cc1ccc(F)c(F)c1)c1ccccc1 (stereo not drawn) [Example 26],,50,100 pM
O=C(OC1CN2CCC1CC2)N(Cc1ccc(Cl)c(F)c1)c1ccccc1F (stereo not drawn) [Example 27],,92,370 pM
O=C(OC1CN2CCC1CC2)N(Cc1ccc(F)c(Cl)c1)c1ccccc1 (stereo not drawn) [Example 28],,35,1500 pM
O=C(OC1CN2CCC1CC2)N(Cc1ccc(Cl)c(Cl)c1)c1ccccc1 (stereo not drawn) [Example 29],,50,1400 pM
Cc1cccc(N(Cc2cc(F)cc(F)c2)C(=O)OC2CN3CCC2CC3)c1 (stereo not drawn) [Example 30],,74,90 pM
Cc1cccc(N(Cc2ccc(C)c(F)c2)C(=O)OC2CN3CCC2CC3)c1 (stereo not drawn) [Example 31],,52,320 pM
COc1ccc(CN(C(=O)OC2CN3CCC2CC3)c2ccccc2F)cc1F (stereo not drawn) [Example 32],,19,3300 pM
O=C(OC1CN2CCC1CC2)N(Cc1ccc(F)c(F)c1F)c1cccc(Cl)c1 (stereo not drawn) [Example 33],,142,400 pM
Cc1cccc(N(Cc2cc(F)cc(F)c2F)C(=O)OC2CN3CCC2CC3)c1 (stereo not drawn) [Example 34],,90,300 pM
Cc1cccc(N(Cc2cc(F)c(F)cc2F)C(=O)OC2CN3CCC2CC3)c1 (stereo not drawn) [Example 35],,839,31 pM
O=C(OC1CN2CCC1CC2)N(Cc1cc(F)c(F)c(F)c1)c1cccc(F)c1 (stereo not drawn) [Example 36],,545,40 pM
O=C(OC1CN2CCC1CC2)N(Cc1cc(F)c(F)c(F)c1)c1ccc(F)cc1 (stereo not drawn) [Example 37],,134,660 pM
Cc1cccc(N(Cc2ccccc2C)C(=O)OC2CN3CCC2CC3)c1 (stereo not drawn) [Example 38],,40,230 pM
O=C(OC1CN2CCC1CC2)N(Cc1ccc(C(F)(F)F)cc1)c1ccccc1 (stereo not drawn) [Example 39],,84,320 pM
CCc1ccc(CN(C(=O)OC2CN3CCC2CC3)c2ccccc2)cc1 (stereo not drawn) [Example 40],,92,66 pM
CC(C)(C)c1ccc(CN(C(=O)OC2CN3CCC2CC3)c2ccccc2)cc1 (stereo not drawn) [Example 41],,271,110 pM
Cc1ccccc1N(Cc1ccc(CO)cc1)C(=O)OC1CN2CCC1CC2 (stereo not drawn) [Example 42],,38,1170 pM
N#Cc1ccc(CN(C(=O)OC2CN3CCC2CC3)c2ccccc2)cc1 (stereo not drawn) [Example 43],,31,900 pM
NC(=O)c1ccc(CN(C(=O)OC2CN3CCC2CC3)c2ccccc2)cc1 (stereo not drawn) [Example 44],,6,7700 pM
O=C(OC1CN2CCC1CC2)N(Cc1ccccc1O)c1ccccc1F (stereo not drawn) [Example 45],,37,180 pM
Cc1cccc(N(Cc2cccc(O)c2)C(=O)OC2CN3CCC2CC3)c1 (stereo not drawn) [Example 46],,33,150 pM
